Our source for the IC50 values is patent publication US20240131178A1, “ANTIBODY-DRUG CONJUGATE INCLUDING ANTIBODY AGAINST HUMAN CLDN18.2, AND USE THEREOF” (LEGOCHEM BIOSCIENCES, INC., priority 2021, published 2024).

Square brackets hold non-standard residues; d marks the D form. Peptide text beside a SMILES is read from it. * marks the point of attachment. Dolaproine = CO[C@@H]([C@@H]1CCCN1)[C@@H](C)C(=O)O; Dil = CC[C@H](C)[C@H](NC)[C@@H](CC(=O)O)OC; X1 = C[C@@H](N*)[C@@H](O)c1ccccc1; NMeV = CN[C@H](C(=O)O)C(C)C

Holding throughout (format): cell-based
Common to all, as to conditions: 144 hours, SRB dye
For orientation: The SRB assay estimates cell density from bound dye.

The test system of test [1] is pancreatic cancer cell line PATU-8988s. The experiment in a line: In vitro cytotoxicity (cell proliferation inhibition), PATU-8988s. Here is the method: (§1) The cell proliferation inhibitory activity of drugs shown in Table 4 and the ADCs was measured. Gastric cancer cell lines NUGC-4, SNU-601, and SNU-602, and a pancreatic cancer cell line PATU-8988s, which are commercially available as cancer cell lines, were used, and normal cell lines HaCaT, Fa2N-4, HK-2, and HS738.st/Int were used. As for test groups treated with each cancer cell line for 144 hours, cells were seeded into a 96-well plate at the rate of 2,500 cells/well to 10,000 cells/well and cultured for 24 hours, and then each cancer cell line was treated with each drug and each ADC at a concentration of 0.256 pM to 100 nM (5-fold serial diltuion), and each normal cell line was treated with each drug and each ADC at a concentration of 2.56 pM to 1,000 nM (5-fold serial dilution). The number of cells survived after 144 hours was quantified using a sulforhodamine B (SRB) dye, and the cell line Hs738.st/Int was quantified using Cell titer glo.

Test [2] has as its system gastric cancer cell line SNU-620. Briefly: In vitro cytotoxicity (cell proliferation inhibition), SNU-620.
The subject of a further test is normal cell line HK-2. The experiment in a line: In vitro cytotoxicity, normal cell line HK-2. On the procedure:
as §1

For another test, the system named is normal cell line HaCaT. The experiment in a line: In vitro cytotoxicity, normal cell line HaCaT. On the procedure:
as §1

The next test has as its system normal cell line Fa2N-4. The experiment in a line: In vitro cytotoxicity, normal cell line Fa2N-4. Here is the method:
as §1

Test [3] has as its system gastric cancer cell line NUGC-4. The experiment in a line: In vitro cytotoxicity (cell proliferation inhibition), NUGC-4. Here is the method:
as §1

The subject of test [4] is gastric cancer cell line SNU-601. The experiment in a line: In vitro cytotoxicity (cell proliferation inhibition), SNU-601. Here is the method: as §1

For orientation: IC50 means the midpoint of a concentration-inhibition curve. Read a low IC50 as higher potency. For the compound `CC[C@H](C)[C@@H]([C@@H](CC(=O)N1CCC[C@H]1[C@H](OC)[C@@H](C)C(=O)N[C@H](C)[C@@H](O)c1ccccc1)OC)N(C)C(=O)[C@@H](NC(=O)[C@@H](NC)C(C)C)C(C)C` [MMAE, monomethyl auristatin E] (H-[NMeV]V[Dil][Dolaproine]-X1), the IC50 amounted to 0.145 nM in test [1]; 0.71 nM in test [2]; 21.9 nM in the test on normal cell line HK-2; 0.14 nM in the test on normal cell line HaCaT; 3 nM in the test on normal cell line Fa2N-4; 0.29 nM in test [3]. In test [4], this compound came in with a 50% inhibitory concentration (IC50) of 0.51 nM.

Consider `C=C1C[C@H]2C=Nc3cc(OCCCCCOc4cc5c(cc4OC)C(=O)N4CC(=C)C[C@H]4C=N5)c(OC)cc3C(=O)N2C1` [SG2057], for which the IC50 in test [2] stood at 0.097 nM; in test [3], 0.03 nM; in test [4] it was 0.003 nM.
